From patent US5578620A, “Thiazolidine and oxazolidine derivatives, their preparation and their medical use” (Sankyo Company, Limited, priority 1994, dated 1996)

Target: T1, Bovine lens aldose reductase (Bos taurus, UniProt P16116)
T1 construct: Bovine lens aldose reductase was separated and partially purified; from tissue; host or cells: bovine lens
Experiment: Inhibition of Aldose reductase
Format: biochemical
Conditions: for inhibition at 5 µg/mL: read-out: Inhibition at 5 μg/ml
Method: Bovine lens aldose reductase was separated and partially purified by the method of S. Hyman and J. H. Kinoshita [J. Biol. Chem., 240, 877 (1965)] and K. Inagaki, I. Miwa and J. Okuda [Arch. Biochem. Biophys., 316, 337 (1982)], and its activity was determined photometrically by the method of Varma et al. [Biochem. Pharmac., 25, 2505 (1976)]. […]

IC50 [nM] | inhibition at 5 µg/mL [%] | Structure (SMILES)
3510 | 54.9 | CC(COc1ccc(CC2SC(=O)NC2=O)cc1)N1CC(COCCCCCCc2ccccc2)OC1=O (centres unmarked) [Example 27, 5-{4-[2-(5-6'-Phenylhexyloxymethyl-2-oxooxazolidin-3-yl)propoxy]benzyl}thiazolidine-2,4-dione]
4990 | 67.2 | CC(COc1ccc(CC2SC(=O)NC2=O)cc1)N1CC(Cc2ccccc2)OC1=O (centres unmarked) [Example 8, 5-{4-[2-(5-Benzyl-2-oxooxazolidin-3-yl)propoxy]benzyl}thiazolidine-2,4-dione]
641 | 85.5 | CC(COc1ccc(CC2SC(=O)NC2=O)cc1)N1CC(COc2cccc(N(C)C)c2)OC1=O (centres unmarked) [Example 33, 5-{4-[2-(5-3'-Dimethylaminophenoxymethyl-2-oxooxazolidin-3-yl)propoxy]benzyl}thiazolidine-2,4-dione]
6020 | 63.2 | CC(COc1ccc(CC2SC(=O)NC2=O)cc1)NCC(O)COc1cccc(Cl)c1 (centres unmarked) [Example 2, 5-{4-[2-(3-3'-Chlorophenoxy-2-hydroxypropylamino)propoxy]benzyl}thiazolidine-2,4-dione]
3940 | 60.1 | CC(CSc1ccc(CC2SC(=O)NC2=O)cc1)N1CC(COc2cccc(Cl)c2)OC1=O (single isomer, unassigned) [10 (less polar), 5-{4-[2-(5-3'-Chlorophenoxymethyl-2-oxooxazolidin-3-yl)propylthio]benzyl}thiazolidine-2,4-dione]
1040 | 74.2 | CC(COc1ccc(CC2SC(=O)NC2=O)cc1)N1CC(COCCCCCc2ccccc2)OC1=O (centres unmarked) [Example 26, 5-{4-[2-(5-5'-Phenylpentyloxymethyl-2-oxooxazolidin-3-yl)propoxy]benzyl}thiazolidine-2,4-dione]
1850 | 80.9 | CC(COc1ccc(CC2SC(=O)NC2=O)cc1)N1CC(CN(C)c2ccccc2)OC1=O (centres unmarked) [Example 40, 5-[4-{2-[5-(N-Methyl-N-phenylaminomethyl)-2-oxooxazolidin-3-yl]propoxy}benzyl]thiazolidine-2,4-dione]
789 | 88.3 | CC(CSc1ccc(CC2SC(=O)NC2=O)cc1)N1CC(COc2cccc(Cl)c2)OC1=O (centres unmarked) [10 (polar), 5-{4-[2-(5-3'-Chlorophenoxymethyl-2-oxooxazolidin-3-yl)propylthio]benzyl}thiazolidine-2,4-dione]
8730 | 55.2 | CC(COc1ccc(CC2SC(=O)NC2=O)cc1)NCC(O)CSc1ccccc1 (centres unmarked) [Example 37, 5-{4-[2-(3-Phenylthio-2-hydroxypropylamino)propoxy]benzyl}thiazolidine-2,4-dione]
1880 | 74 | CC(COc1ccc(CC2SC(=O)NC2=O)cc1)N1CC(COCc2cccc(Cl)c2)OC1=O (centres unmarked) [Example 42, 5-{4-[2-(5-3'-Chlorobenzyloxymethyl-2-oxooxazolidin-3-yl)propoxy]benzyl}thiazolidine-2,4-dione]
863 | 88.1 | COc1ccc(OCC2CN(C(C)COc3ccc(CC4SC(=O)NC4=O)cc3)C(=O)O2)cc1 (centres unmarked) [31 (polar), 5-{4-[2-(5-4'-Methoxyphenoxymethyl-2-oxooxazolidin-3-yl)propoxy]benzyl}thiazolidine-2,4-dione]
3300 | 70.7 | CC(COc1ccc(CC2SC(=O)NC2=O)cc1)N1CC(COCCc2ccccc2)OC1=O (centres unmarked) [Example 23, 5-{4-[2-(5-2'-Phenylethoxymethyl-2-oxooxazolidin-3-yl)propoxy]benzyl}thiazolidine-2,4-dione]
1970 | 71.7 | CC(COc1ccc(CC2SC(=O)NC2=O)cc1)N1CC(COCCCc2ccccc2)OC1=O (single isomer, unassigned) [24 (less polar), 5-{4-[2-(5-3'-Phenylpropoxymethyl-2-oxooxazolidin-3-yl)propoxy]benzyl}thiazolidine-2,4-dione]
3750 | 62 | CC(COc1ccc(CC2SC(=O)NC2=O)cc1)NCC(O)COc1ccc(-c2ccccc2)cc1 (centres unmarked) [Example 34, 5-{4-[2-(3-4'-Phenylphenoxy-2-hydroxypropylamino)propoxy]benzyl}thiazolidine-2,4-dione]
1040 | 77.8 | CC(COc1ccc(CC2SC(=O)NC2=O)cc1)N1CC(COc2ccccc2)OC1=S (centres unmarked) [Example 49, 5-{4-[2-(5-Phenoxymethyl-2-thioxooxaolidin-3-yl)propoxy]benzyl}thiazolidine-2,4-dione]
1170 | 65.9 | CC(COc1ccc(CC2SC(=O)NC2=O)cc1)N1CC(COCc2cccc(Cl)c2)OC1=S (centres unmarked) [Example 43, 5-{4-[2-(5-3'-Chlorobenzyloxymethyl-2-thioxooxazolidin-3-yl)propoxy]benzyl}thiazolidine-2,4-dione]
2410 | 84.5 | CC(COc1ccc(CC2SC(=O)NC2=O)cc1)N1CC(COc2ccccc2)OC1=O (centres unmarked) [Example 4, 5-{4-[2-(5-Phenoxymethyl-2-oxooxazolidin-3-yl)propoxy]benzyl}thiazolidine-2,4-dione]
1860 | 72.8 | CC(C)(COc1ccc(CC2SC(=O)NC2=O)cc1)N1CC(COc2cccc(Cl)c2)OC1=O (centres unmarked) [Example 52, 5-{4-[2-(5,3'-Chlorophenoxymethyl-2-oxooxazolidin-3-yl)-2-methylpropoxy]benzyl}thiazolidine-2,4-dione]
1500 | 80.1 | CC(COc1ccc(CC2SC(=O)NC2=O)cc1)N1CC(CSc2ccccc2)OC1=O (centres unmarked) [Example 38, 5-{4-[2-(5-Phenylthiomethyl-2-oxooxazolidin-3-yl)propoxy]benzyl}thiazolidine-2,4-dione]
6120 | 54.6 | CC(COc1ccc(CC2SC(=O)NC2=O)cc1)NCC(O)COc1cccc(N(C)C)c1 (centres unmarked) [Example 32, 5-{4-[2-(3-3'-Dimethylaminophenoxy-2-hydroxypropylamino)propoxy]benzyl}thiazolidine-2,4-dione]
617 |  | CCCC(COc1ccc(CC2SC(=O)NC2=O)cc1)N1CC(COc2cccc(Cl)c2)OC1=O (centres unmarked) [Example 50, 5-{4-[2-(5-3'-Chlorophenoxymethyl-2-oxooxazolidin-3-yl)pentyloxy]benzyl}thiazolidine-2,4-dione]

Structure (SMILES) | IC50 [nM] | inhibition at 5 µg/mL [%]
CC(COc1ccc(CC2SC(=O)NC2=O)cc1)N1CC(COCCCCc2ccccc2)OC1=O (centres unmarked) [25 (polar), 5-{4-[2-(5-4'-Phenylbutoxymethyl-2-oxooxazolidin-3-yl)propoxy]benzyl}thiazolidine-2,4-dione] | 429 | 82
CCC(COc1ccc(CC2SC(=O)NC2=O)cc1)N1CC(COc2cccc(Cl)c2)OC1=O (single isomer, unassigned) [47 (less polar), 5-{4-[2-(5-3'-Chlorophenoxymethyl-2-oxooxazolidin-3-yl)butoxy]benzyl}thiazolidine-2,4-dione] | 3170 | 57.6
CCC(COc1ccc(CC2SC(=O)NC2=O)cc1)NCC(O)COc1cccc(Cl)c1 (centres unmarked) [Example 46, 5-{4-[2-(3-3'-Chlorophenoxy-2-hydroxypropylamino)butoxy]benzyl}thiazolidine-2,4-dione] | 6050 | 61
